# From patent US9890118B2, “Prostamides for the treatment of glaucoma and related diseases” (Allergan, Inc., priority 2004, dated 2018)
# Marks after values point to notes of the source that are not given here.
# Tested on: dogs (Beagle)
# Assay: Intraocular pressure studies by pneumatonometry in conscious dogs
# Format: in vivo
# Settings: topical 25 μL drop, 0.03% drug in 0.1% polysorbate 80:10 mM TRIS, one eye; for Change in Intraocular Pressure (IOP), 0 hrs: 0 hrs (just before drug administration); for Change in Intraocular Pressure (IOP), 2 hrs: 2 hrs after dosing; for Change in Intraocular Pressure (IOP), 4 hrs: 4 hrs after dosing; for Change in Intraocular Pressure (IOP), 6 hrs: 6 hrs after dosing; for Change in Intraocular Pressure (IOP), 24 hrs: 24 hrs after dosing
# Method: Intraocular pressure studies were carried out for compounds 1-3 by pneumatonometry in dogs (Beagle) of both sexes (10-15 kg). The animals remained conscious throughout the study and were gently restrained by hand. Drugs were administered topically to one eye as a 25 μL volume drop comprising 0.03% drug, 0.1% polysorbate 80:10 mM TRIS, the other eye received 0.1% polysorbate 80:10 mM TRIS. Proparacaine (0.1%) was used for corneal anesthesia during tonometry. Intraocular pressure was determined just before drug administration and at 2, 4 and 6 hours thereafter on each day of the 5 day study. […] Drug was administered immediately after the first IOP reading.
SMILES,"Change in Intraocular Pressure (IOP), 0 hrs","Change in Intraocular Pressure (IOP), 2 hrs","Change in Intraocular Pressure (IOP), 4 hrs","Change in Intraocular Pressure (IOP), 6 hrs","Change in Intraocular Pressure (IOP), 24 hrs"
"CCCCC[C@H](O)/C=C/[C@@H]1[C@@H](C/C=C\CCCC(=O)NCCc2ccc(O)c(O)c2)[C@@H](O)C[C@H]1O [Compound 2, (Z)-7-[(1R,2R,3R,5S)-3,5-Dihydroxy-2-((E)-(S)-3-hydroxy-oct-1-enyl)-cyclopentyl]-hept-5-enoic acid [2-(3,4-dihydroxy-phenyl)-ethyl]-amide]",0,−3.8*,−3.2**,−3.2**,−1.1*
"CCCCC[C@H](O)/C=C/[C@@H]1[C@@H](C/C=C\CCCC(=O)NCCc2c[nH]c3ccc(O)cc23)[C@@H](O)C[C@H]1O [Compound 3, (Z)-7-[(1R,2R,3R,5S)-3,5-Dihydroxy-2-((E)-(S)-3-hydroxy-oct-1-enyl)-cyclopentyl]-hept-5-enoic acid [2-(5-hydroxy-1H-indol-3-yl)-ethyl]-amide]",0,−3.2*,−5.8*,−7.6**,−2.2
"CCCCC[C@H](O)/C=C/[C@@H]1[C@@H](C/C=C\CCCC(=O)NCCc2ccc(OC(C)=O)c(OC(C)=O)c2)[C@@H](O)C[C@H]1O [Compound 1, acetic acid 2-acetoxy-5-(2-{(Z)-7-[(1R,2R,3R,5S)-3,5-dihydroxy-2-((E)-(S)-3-hydroxy-oct-1-enyl)-cyclopenyl]-hept-5-enoylamino}-ethyl)-phenyl ester]",0,−4.4**,−3.4**,−3.1**,−1.4*
